Laboratory results reported in paper PMC12042267, “Expanding the Family of Monosubstituted 15-Membered Pyridine-Based Macrocyclic Ligands for Mn(II) Complexation in the Context of MRI” (Inorganic Chemistry, 2025).

Legend:
Assay type in all cases: physicochemical
[1] = Stability constants of Mn(II) complexes by pH-potentiometry, pMn and species distribution; conditions: for log KML / log KML(OH): Mn(II), I = 0.15 M NaCl, 25 °C; for pMn: pMn = −log[Mn(II)]free at pH 7.4, cMn = clig = 10^–5 M
Protocol: (§1) Metal stock solutions were prepared from the highest analytical grade chemicals, and their concentration was determined by complexometric titration with standardized Na2H2EDTA, using xylenol orange indicator in the presence of urotropine buffer (ZnCl2 and MnCl2); Eriochrome black T indicator in the presence of ammonium acetate buffer (CaCl2) or murexide indicator in ammonium solution (CuCl2). The concentration of the ligand stock solutions was determined by pH-potentiometric titrations (the difference between two consecutive inflection points of the ligand titration curve corresponds to two (L2) or one (L3) ligand equivalents). To determine the protonation constants of the ligand and stability constants of the metal complexes with selected divalent metal ions, pH-potentiometric titrations were carried out with 0.1 M NaOH at 2 mM ligand concentration, in the absence (for ligand protonation constants) or in the presence of one equivalent of metal ion (for stability constants). During the titration, the waiting time was 2 min between successive points (V0 = 5 mL). The temperature (25.0 ± 0.1 °C) was controlled by a circulating water bath. The ionic strength was set to I = 0.15 M NaCl. All titrations were performed under a nitrogen atmosphere to avoid the effect of CO2. Titrations were carried out in the pH range from 1.8 (L3) or 2.0 (L2) (after the addition of 1 M HCl solution to the starting ligand solution in the titration cell) to pH 11 (or until precipitation of the metal hydroxide). All pH-potentiometric titrations were performed using a 785 DMP Titrino titration workstation with a combined electrode (Metrohm). The p[H] (p[H] = −log[H+], concentration in molarity) was measured in each titration with a combined pH glass electrode (Metrohm) filled with 3 M KCl. The electrode was calibrated in hydrogen ion concentration by titration of HCl with KOH in 0.1 M electrolyte solution.[37] A plot of potential versus p[H] allows determination of the electrode standard potential (E°) and the slope factor (f).
(§2) The protonation constants of the ligand (log Ki^H) are defined as follows [drawing 1] where i = 1, 2, ··· and [Hi–1L] and [H^+] are the equilibrium concentrations of the ligand (i = 1), its protonated forms (i = 2, ···), and the hydrogen ion. The stability (KML) and the protonation (KMHiL) constants for the metal complexes are defined as follows [drawing 2] [drawing 3] For the calculations of the equilibrium constants, the HYPERQUAD program was used.[38] The number of fitted data pairs was between 190 and 240. The ionic product of water at 25 °C and 0.1 M ionic strength is pKw = 13.77.[39] Fixed values were used for pKw, ligand acidity constants, and total concentrations of metal, ligand, and acid. All values and errors (one standard deviation) reported are at least the average of two independent experiments.
To obtain further information about the impact of a given pendant arm, it is interesting to calculate pMn values (pMn = −log[Mn(II)]free at pH 7.4, cMn = clig= 10^–5 M) which provide a more direct comparison of MnL stabilities, independently of differences in protonation constants (Table 4). […] Nevertheless, the too large, 15-membered macrocyclic cavity combined with a lower number of pendant arms provide ca. 2 orders of magnitude lower stability for Mn(II) complexation as compared to the 12-membered pyclen derivatives (Table 4).

[2] = Stability constants of Ca(II) complexes by pH-potentiometry; conditions: I = 0.15 M NaCl, 25 °C
Protocol: as §1, §2

[3] = Stability constants of Cu(II) complexes by pH-potentiometry; conditions: I = 0.15 M NaCl, 25 °C
Protocol: as §1, §2

[4] = Ligand protonation constants by pH-potentiometric titration; conditions: I = 0.15 M NaCl; 25 °C
Protocol: as §1
as §2, with “All values and errors (one standard deviation) reported are at least the average of two independent experiments.” left out

[5] = Dissociation kinetics of Mn(II) complexes, transmetalation with Zn(II) (T2 relaxation); conditions: Zn(II) transmetalation, 25 °C, 0.15 M NaCl, pH 4.9–6.0
Protocol: The transmetalation reaction of MnL2 and MnL3 (1.4 mM) was monitored in the presence of 10, 20, 30, and 40 mol equiv of Zn(II) ions, by measuring water proton T2 relaxation times (60 MHz) as a function of time at 25 °C and in 0.15 M NaCl, in the pH range 4.9–6.0 (4.9, 5.0, 5.2, 5.5, and 6.0). To control pH, 50 mM N-methyl-piperazine (pH 4.9–5.5) or 50 mM MES (2-(4-morpholino)ethane-sulfonic acid) buffer (pH 5.7–6.0) was used. Transmetalation of MnL2 (0.3 mM) was also investigated in the presence of 10, 20, 30, and 40 mol equiv of Cu(II) ions, by monitoring the UV–vis absorbance at 274.0 nm as a function of time at 25 °C and in 0.15 M NaCl, in the pH range 4.7–5.0 (in 75 mM 1,4-dimethyl piperazine (DMP) buffer). No oxidation of the samples was observed. The program OriginPro 9 was used for the fitting of experimental data.
The dissociation kinetics was followed through monitoring Mn(II) release by water proton T2 measurements, at pH […], in the presence of 10- to 40-fold excess of Zn(II) and through UV–vis measurements in the presence of 10- to 40-fold excess of Cu(II) at pH 4.7–5.0 (only for MnL2). The observed dissociation rate constants, kobs, increase with increasing H^+ ion concentration (Figures 4, left and S20). They remain independent of Zn(II) concentration (Figures S18 and S19), but do show dependence on Cu(II) concentration (Figure S21).
In excess of the exchanging metal ion, the reaction is of pseudo-first order, and the rate is proportional to the total MnL2 or MnL3 concentration (eq 1), where kobs is the pseudo-first-order rate constant. [drawing 4] 1 In general, different dissociation pathways can coexist, implying the participation of protons and/or the exchanging metal ion,[47] as illustrated in Figure 5.
Based on this scheme, the overall rate for either Zn(II) or Cu(II) transmetalation can be given by eq 2, where M = Zn^2+ or Cu^2+ (for clarity, charges of the complexes are omitted). [drawing 5] 2 Here, the first and second terms correspond to the spontaneous dissociation of the nonprotonated and the monoprotonated complexes, respectively, the third term describes the proton-assisted dissociation of the monoprotonated complex, and the last two terms refer to the spontaneous dissociation of the dinuclear complex and metal-assisted dissociation of the monoprotonated MnL2 or MnL3 complex. [MnL]tot describes the total concentration of Mn(II) chelates ([MnL]tot = [MnL] + [MnHL] + [ZnLMn]). Since no obvious Zn(II) dependence (for any of the two systems) was observed, only the spontaneous and proton-assisted dissociation pathways were taken into consideration. Consequently, the observed rate constants can be expressed as in eq 3 with k0 = kMnL, k1 = kMnHL·KMnHL, and k2 = ^HkMnHL·KMnHL. [drawing 6] 3 The kobs rate constants were fitted to eq 3, and the calculated parameters are listed in Table 5 for the Zn(II) exchange. During the fitting procedure, KMnHL was fixed to the value obtained from the pH-potentiometric titrations.

[6] = Stability constants of Zn(II) complexes by pH-potentiometry; conditions: I = 0.15 M NaCl, 25 °C
Protocol: as §1, §2

log KML [1]	log KML(OH) [1]	pMn [1]	log KH2ML [2]	log KHML [2]	log KML [2]	log KML [3]	log KML(OH) [3]	log K2^H [4]	log K3^H [4]	log KHML [6]	log KML [6]	log KML(OH) [6]	log KML(OH) [2]	log KHML [3]	SMILES	k0 (spontaneous dissociation of the nonprotonated complex) [5]	k1 (spontaneous dissociation of the monoprotonated complex) [5]	k2 (proton-assisted dissociation of the monoprotonated complex) [5]
10.25(1)	-10.89(3)	6.93	6.63(9)	7.23(7)	4.11(4)	16.57(8)	-10.78(8)	7.14(1)	2.1(1)	2.99(2)	13.36(1)	-10.97(2)	–	–	c1ccc(CN2CCOCCOCCNCc3cccc(n3)C2)nc1 [L2]	(1.1 ± 0.3) × 10^–3 s^–1	737 ± 110 M^–1 s^–1	(4.5 ± 0.8) × 10^7 M^–2 s^–1
9.74(1)	-9.78(1)	6.80	–	6.72(6)	3.53(1)	16.91(2)	-7.9(1)	5.85(1)	1.98(1)	2.09(6)	12.09(1)	-9.33(2)	-10.93(1)	2.1(4)	c1cc2nc(c1)CN(Cc1nc3ccccc3[nH]1)CCOCCOCCNC2 [L3]	(1.9 ± 0.3) × 10^–3 s^–1	912 ± 41 M^–1 s^–1	–
